Laboratory results as given in patent US11214772B2, “Production method for retinal tissue” (SUMITOMO DAINIPPON PHARMA CO., LTD., priority 2014, dated 2022).

B1: BMP4: human recombinant BMP4 (manufactured by R&D), BMP signal transduction pathway activating substance (protein, UniProt P12644 293-408, looked up)
Bone morphogenetic protein 4: SPKHHSQRARKKNKNCRRHSLYVDFSDVGWNDWIVAPPGYQAFYCHGDCPFPLADHLNSTNHAIVQTLVNSVNSSIPKACCVPTELSAISMLYLDEYDKVVLKNYQEMVVEGCGCR

How the values were obtained:
Type in all cases: cell-based
[1] = system: human iPS cells (1231A3 strain); assay: Bright field observation of cell aggregates in suspension culture (aggregate shape, neuroepithelium / neural tissue formation); conditions: for aggregate growth and neuroepithelium formation (bright field): Example 7, SAG 30 nM, PMA 0.2 μM or human recombinant Shh 300 ng/ml day 0, BMP4 1.5 nM day 3
Protocol: The above subconfluent human iPS cells were treated with a cell dispersion solution by using TrypLE Select (Life Technologies), and further dispersed into single cells by a pipetting operation. Thereafter, the above human iPS cells dispersed into single cells were suspended in 100 μl of a serum-free medium in a non-cell-adhesive 96 well culture plate (PrimeSurface 96V-bottom plate, SUMITOMO BAKELITE) at 1.2×10^4 cells per well, and subjected to suspension culturing at 37° C., 5% CO2. As a serum-free medium (gfCDM+KSR) therefor, a 1:1 mixture of F-12 medium and IMDM medium supplemented with 10% KSR, 450 μM 1-monothioglycerol, 1× Chemically defined lipid concentrate was used. At the start of the suspension culturing (on day 0 after the start of suspension culturing, step 2 start), Y27632 (final concentration 20 μM) was added to the above serum-free medium. By day 2 after the start of suspension culturing, cell aggregates were formed (step 2 completed, and step 3 start). On day 3 after the start of suspension culturing, a serum-free medium (50 μl) free of Y27632 was added.
On day 6 after the start of suspension culturing, a half amount of the medium was changed with a medium free of Y27632 and containing or not containing human recombinant BMP4 (manufactured by R&D) to adjust the final concentration of exogenous human recombinant BMP4 to 1.5 nM (55 ng/ml, FIG. 1B) or to give a medium free of exogenous human recombinant BMP4 (FIG. 1A). As the half-medium exchange operation, a half volume of the medium in the culture vessel, namely 75 μl, was discarded, the above fresh serum-free medium (75 μl) was added to adjust the total medium amount to 150 μl. Thereafter, a half amount of the medium was changed with the above serum-free medium free of Y27632 and human recombinant BMP4 once per 2-4 days. […]
The thus-prepared subconfluent human iPS cells were treated with a cell dispersion solution by using TrypLE Select (Life Technologies), and further dispersed into single cells by a pipetting operation. Thereafter, the above human iPS cells dispersed into single cells were suspended in 100 μl of a serum-free medium in a non-cell-adhesive 96 well culture plate (PrimeSurface 96V-bottom plate, SUMITOMO BAKELITE) at 1.2×10^4 cells per well, and subjected to suspension culturing at 37° C., 5% CO2. As a serum-free medium (gfCDM+KSR) therefor, a 1:1 mixture of F-12 medium and IMDM medium supplemented with 10% KSR, 450 μM 1-monothioglycerol, 1× Chemically defined lipid concentrate was used. […] By day 2 after the start of suspension culturing, cell aggregates were formed (step 2 completed, step 3 start). On day 3 after the start of suspension culturing, a serum-free medium (50 μl) free of Y27632 and SAG was added. On day 6 after the start of suspension culturing, a half amount of the medium was changed with a medium free of Y27632 and containing or not containing human recombinant BMP4 (manufactured by R&D) to adjust the final concentration of exogenous human recombinant BMP4 to 1.5 nM (55 ng/ml, FIG. 1D) or to give a medium free of exogenous human recombinant BMP4 (FIG. 1C). As the half-medium exchange operation, a half volume of the medium in the culture vessel, namely 75 μl, was discarded, the above fresh serum-free medium (75 μl) was added to adjust the total medium amount to 150 μl. Thereafter, a half amount of the medium was changed with the above serum-free medium free of Y27632, SAG and human recombinant BMP4 once per 2-4 days. […]
The thus-prepared subconfluent human iPS cells were treated with the cell dispersion solution by using TrypLE Select (Life Technologies), further dispersed into single cells by pipetting operation, and the above human iPS cells dispersed into single cells were suspended in 100 μl of a serum-free medium at 1.2×10^4 cells per well of a non-cell-adhesive 96-well culture plate (PrimeSurface 96V-bottom plate, manufactured by SUMITOMO BAKELITE). Thereafter, the cells were subjected to suspension culturing at 37° C., 5% CO2. […]

[2] = system: human iPS cells (1231A3 strain); assay: Immunostaining of aggregate cryosections for retinal tissue markers Chx10 and Rx; conditions: Example 7, BMP4 1.5 nM day 3, day 18
Description: The above cell aggregates on day 19 after the start of suspension culturing were each fixed with 4% para-formaldehyde to give cryosections. These cryosections were immunostained for Chx10 (anti-Chx10 antibody, manufactured by Exalpha, sheep), which is one of the retinal tissue markers, or Rx (anti-Rx antibody, manufactured by TAKARA, guinea pig), which is one of the retinal tissue markers. In judgment of whether the above marker is positive in the immunostaining analysis, a fluorescence intensity which is not less than 2 times higher than that of the background was taken as positive.
The thus-prepared cell aggregates on day 18 after the start of suspension culturing, which were produced by adding SAG in step 2 from feeder-free iPS cells as a starting material, were fixed with 4% para-formaldehyde to produce frozen sections. These frozen sections were immunostained for Chx10 (anti-Chx10 antibody, Exalpha, sheep), which is one of the retinal tissue markers, or Rx (anti-Rx antibody, manufactured by TAKARA, guinea pig), which is one of the retinal tissue markers. These immunostained sections were observed under an inverted fluorescence microscope.
The cell aggregates on day 18 after the start of suspension culturing were fixed with 4% para-formaldehyde to produce frozen sections. These frozen sections were immunostained for Chx10 (anti-Chx10 antibody, Exalpha, sheep), which is one of the retinal tissue markers.

[3] = system: human iPS cells (201B7 strain); assay: Bright field observation of cell aggregates in suspension culture (neuroepithelium formation); conditions: Example 6; StemFit; SAG 30 nM, Purmorphamine 0.2 μM or human recombinant Shh 50 ng/ml day 0; BMP4 1.5 nM day 3; day 18
Protocol: The thus-prepared subconfluent human iPS cells were treated with the cell dispersion solution by using TrypLE Select (manufactured by Life Technologies), further dispersed into single cells by pipetting operation, and the above human iPS cells dispersed into single cells were suspended in 100 μl of a serum-free medium at 1.2×10^4 cells per well of a non-cell-adhesive 96-well culture plate (PrimeSurface 96V-bottom plate, SUMITOMO BAKELITE). Thereafter, the cells were subjected to suspension culturing at 37° C., 5% CO2. As the serum-free medium (gfCDM+KSR) therefor, a serum-free medium which is a 1:1 mixture of F-12 medium and IMDM medium supplemented with 10% KSR, 450 μM 1-monothioglycerol, 1× Chemically defined lipid concentrate was used. At the time of the start of suspension culturing (day 0 after the start of suspension culturing, start of step 2), a serum-free medium supplemented with SAG (final concentration […]) as a Shh signal transduction pathway activating substance and Y27632 (20 μM) was used (FIG. 5A-D). By day 2 after the start of suspension culturing, cell aggregates were formed. On day 3 after the start of suspension culturing, a serum-free medium (50 μl) free of Y27632 and SAG was added. […] The thus-prepared cell aggregates were subjected to bright field observation under an inverted microscope (BIOREVO manufactured by KEYENCE) on day 18 after the start of suspension culturing.
The thus-prepared subconfluent human iPS cells were treated with the cell dispersion solution by using TrypLE Select (manufactured by Life Technologies), further dispersed into single cells by pipetting operation, and the above human iPS cells dispersed into single cells were suspended in 100 μl of a serum-free medium at 1.0×10^4 cells per well of a non-cell-adhesive 96-well culture plate (SUMILON SPHEROID V-bottom plate PrimeSurface 96V-bottom plate, SUMITOMO BAKELITE). Thereafter, the cells were subjected to suspension culturing at 37° C., 5% CO2. As the serum-free medium (gfCDM+KSR) therefor, a serum-free medium which is a 1:1 mixture of F-12 medium and IMDM medium supplemented with 10% KSR, 450 μM 1-monothioglycerol, 1× Chemically defined lipid concentrate was used. At the time of the start of suspension culturing (day 0 after the start of suspension culturing, start of step 2), the above serum-free medium supplemented with Y27632 (final concentration 20 μM) and further supplemented with SAG (final concentration 30 nM), Purmorphamine (manufactured by Wako, final concentration 0.2 μM), or human recombinant Shh (manufactured by R&D, Recombinant N-Terminus, final concentration 50 ng/ml) as a Shh signal transduction pathway activating substance was used (FIG. 8). On day 2 after the start of suspension culturing, a cell aggregates were formed. […]

[4] = Comparative Example 1, StemFit, no SAG, BMP4 1.5 nM on day 6, observed day 19
[5] = Example 2 Condition 2, Essential 8, no SAG, BMP4 1.5 nM day 6, day 18

Molecule | aggregate growth and neuroepithelium formation (bright field) ([1]; StemFit, day 18) | proportion of Chx10-positive cells in the total cells ([2]; PMA 0.2 μM day 0) | neuroepithelium formation (bright field) [3] | presence of Chx10-positive cells in the cell aggregate ([2]; SAG 30 nM or Shh 300 ng/ml day 0) | cell aggregates collapsed [1, 4] | neural tissue formation efficiency [1, 4] | cell aggregates collapsed [1, 5] | formation efficiency of neural tissue [1, 5]
c1ccc2c(Oc3nc(Nc4ccc(N5CCOCC5)cc4)c4ncn(C5CCCCC5)c4n3)cccc2c1 [PMA, 9-cyclohexyl-N-[4-(4-morpholinyl)phenyl]-2-(l-naphthalenyloxy)-9H-purin-6-amine] | cell aggregates grew and neuroepithelium was formed | not more than 60% | neuroepithelium was formed | – | – | – | – | –
Shh: human recombinant Shh (manufactured by R&D, Recombinant N-Terminus), Sonic hedgehog signal transduction pathway activating substance | cell aggregates grew and neuroepithelium was formed | – | neuroepithelium was formed | contained Chx10-positive cells | – | – | – | –
B1 | – | – | – | – | not less than 90% | poor | not less than 80% | poor
